The values that follow come from patent publication US10091997B2, “Composition for inhibition of insect host sensing” (Vanderbilt University, priority 2010, dated 2018).

In one assay the target is T1, AgORco (Anopheles gambiae, UniProt Q7QCC7).
T1 construct: expressed in transfected cells
T1 sequence (Q7QCC7 1-478): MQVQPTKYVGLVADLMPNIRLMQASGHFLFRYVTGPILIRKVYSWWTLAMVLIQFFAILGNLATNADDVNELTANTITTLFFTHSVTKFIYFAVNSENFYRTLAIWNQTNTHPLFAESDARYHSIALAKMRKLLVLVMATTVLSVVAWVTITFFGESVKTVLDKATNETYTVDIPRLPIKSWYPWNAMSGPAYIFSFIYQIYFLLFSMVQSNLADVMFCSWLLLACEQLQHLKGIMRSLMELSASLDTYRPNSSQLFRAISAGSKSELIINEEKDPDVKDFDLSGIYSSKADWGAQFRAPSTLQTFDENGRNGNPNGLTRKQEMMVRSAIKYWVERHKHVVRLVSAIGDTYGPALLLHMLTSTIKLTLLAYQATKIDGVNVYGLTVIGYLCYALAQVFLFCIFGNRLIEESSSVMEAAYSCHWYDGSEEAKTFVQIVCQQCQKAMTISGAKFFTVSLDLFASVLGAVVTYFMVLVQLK
As to the kind of experiment: whole-cell patch clamp, HEK293 cells stably expressing AgORco alone. The format is cell-based. To be noted: for whole-cell currents: AgORco alone cells, clamped at −60 mV. The method, then:
(§1) Currents from OR-expressing HEK293 cells were amplified with an Axopatch 200b Amplifier (Axon Instruments) and digitized through a Digidata 1322A (Axon Instruments). Electrophysiological data was recorded and analyzed using pCLAMP 10 (Axon Instruments). Electrodes were fabricated from quartz tubing (Sutter Instruments) and pulled to 4-6 MΩ for whole cell recording. Electrodes were filled with internal solution (120 mM KCl, 30 mM D-glucose, 10 mM HEPES, 2 mM MgCl2, 1.1 mM EGTA, and 0.1 CaCl2 (pH 7.35, 280 mOsm). External (bath) solution contained 130 mM NaCl, 34 mM D-glucose, 10 mM HEPES, 1.5 mM CaCl2, 1.3 mM KH2PO4, and 0.5 MgSO4 (pH 7.35, 300 mOsm). Compounds were diluted in external solution and locally perfused to the recording cell using Perfusion Pencil (Automate Scientific) and controlled by a ValveLink 8.2 controller (Automate Scientific). Whole cell recordings were sampled at 10 kHz and filtered at 5 kHz. Outside-out patches were obtained using 10-15MΩ electrodes pulled from standard glass capillaries (World Precision Instruments) and fire-polished with an MF-830 micro forge (Narishige). Single channel recordings were sampled at 20 kHz. Recordings were reduced to 1 kHz and low-pass filtered at 500 Hz for display and analysis using QuB (SUNY at Buffalo).
(§2) To test the hypothesis that VUAA1 directly agonized AgORco, whole-cell patch clamp responses were examined in AgORco+AgOR10 expressing cells as well HEK293 cells stably expressing AgORco alone. […] The VUAA1-dependent currents in AgORco+AgOR10 cells resembled those resulting from application of benzaldehyde, an orthosteric agonist of AgOR10 (FIG. 3C) (Wang, 2010; Carey, 2010). AgORco+AgOR10 cells were more sensitive to VUAA1 than AgORco cells, producing inward currents at −5.0 log M, a concentration at which AgORco had no response. […] To investigate the specificity of VUAA1 agonism, the inventors transiently transfected HEK cells with the AgORco orthologs of Drosophila melanogaster and Heliothis virescens, DmOR83b and HvOR2 respectively.

The next assay deals with AgORco+AgOR10. Description: whole-cell patch clamp, HEK293 cells expressing AgORco+AgOR10. The format is cell-based, Anopheles gambiae. The settings on record: for whole-cell currents: AgORco+AgOR10 cells, clamped at −60 mV. As to the method: as §1, §2
A general note: Patch clamp records ionic current or voltage across a cell membrane.

The target in assay [1] is T2, rat transient receptor potential vanilloid 1 (rTRPV1) (Rattus norvegicus, UniProt O35433).
T2 construct: expressed in transfected cells
T2 sequence (O35433 whole entry): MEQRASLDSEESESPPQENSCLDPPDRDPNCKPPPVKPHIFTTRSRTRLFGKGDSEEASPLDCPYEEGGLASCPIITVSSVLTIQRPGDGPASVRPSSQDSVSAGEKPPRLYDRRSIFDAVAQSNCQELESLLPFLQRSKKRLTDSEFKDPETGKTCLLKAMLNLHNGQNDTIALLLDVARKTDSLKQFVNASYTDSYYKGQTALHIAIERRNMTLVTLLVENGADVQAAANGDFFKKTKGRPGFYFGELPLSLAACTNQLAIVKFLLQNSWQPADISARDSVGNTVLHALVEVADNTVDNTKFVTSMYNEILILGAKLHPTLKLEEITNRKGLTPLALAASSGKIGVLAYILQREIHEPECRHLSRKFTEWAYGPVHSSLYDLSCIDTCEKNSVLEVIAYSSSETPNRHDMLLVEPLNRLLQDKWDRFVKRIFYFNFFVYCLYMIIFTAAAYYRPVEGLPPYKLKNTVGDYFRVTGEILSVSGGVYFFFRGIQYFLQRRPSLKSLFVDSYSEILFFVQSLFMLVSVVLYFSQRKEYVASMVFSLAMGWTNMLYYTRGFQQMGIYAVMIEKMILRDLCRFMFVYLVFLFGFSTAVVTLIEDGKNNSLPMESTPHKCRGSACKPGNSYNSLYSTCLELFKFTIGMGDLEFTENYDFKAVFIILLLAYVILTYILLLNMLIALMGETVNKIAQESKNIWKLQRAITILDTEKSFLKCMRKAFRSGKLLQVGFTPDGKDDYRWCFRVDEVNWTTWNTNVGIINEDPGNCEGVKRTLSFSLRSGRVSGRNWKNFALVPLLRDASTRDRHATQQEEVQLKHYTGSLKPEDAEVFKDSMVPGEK
Description: whole-cell patch clamp, HEK cells stably expressing rTRPV1. The format is cell-based.
Description: To determine the broad-spectrum specificity of VUAA1, the inventors tested VUAA1 on another non-selective cation channel, transient receptor potential vanilloid receptor 1 (TRPV1) (Caterina, 1997; Bohlen, 2010).

The subject of assay [2] is Un-transfected HEK293 cells. As to the kind of experiment: whole-cell patch clamp, control HEK293 cells (un-transfected or GFP alone). The format is cell-based, human. As to the method: as §1

Regarding `Nc1ncnc2c1nc(Br)n2[C@@H]1O[C@@H]2COP(=O)(O)O[C@H]2[C@H]1O` [8-Br cAMP], the whole-cell currents entry at AgORco and with AgORco+AgOR10 was “unable to evoke whole-cell currents” in each case.

With `Nc1nc2c(nc(Br)n2[C@@H]2O[C@@H]3COP(=O)(O)O[C@H]3[C@H]2O)c(=O)[nH]1` [8-Br cGMP], the whole-cell currents result on AgORco and in the assay on AgORco+AgOR10 was “unable to evoke whole-cell currents” each time.

`COc1cc(CNC(=O)CCCC/C=C/C(C)C)ccc1O` [Capsaicin, reference compound]: the whole-cell currents result in assay [1] is “elicited a robust response”.

As to `N.N.N.N.N.N.N.N.N.N.N.N.N.N.[Cl-].[Cl-].[Cl-].[Cl-].[Cl-].[Cl-].[O-2].[O-2].[Ru+3].[Ru+3].[Ru+4]` [RR, ruthenium red], on AgORco (AgORco cells, agonist VUAA1), the “reduction of VUAA1 responses” value came out at 79.4±4.0%. In addition, in the assay with AgORco+AgOR10 (AgOrco+AgOR10 cells, agonist VUAA1), the “reduction of VUAA1-elicited currents” value is listed as 68.3±2.8%. Further, the “reduction of benzaldehyde-elicited currents” value in the assay with AgORco+AgOR10 (AgOrco+AgOR10 cells, agonist benzaldehyde) was found to be 87.8±1.8%.

`O=Cc1ccccc1` [benzaldehyde, reference compound]: the whole-cell currents entry at AgORco is “only AgORco+AgOR10 cells responded to BA”; in the assay on AgORco+AgOR10 it was “concentration-dependent responses”. Besides, the “whole-cell currents in GFP alone cells” value in assay [2] (HEK cells transfected with GFP alone) is “no currents”. Moreover, the “whole-cell currents in control cells” value in assay [2] (control / un-transfected HEK293 cells) is “did not respond”.
